We go through 14 molecules from US20070015737A1, “Compounds for inhibiting diseases and preparing cells for transplantation” (Neurochem (International) Limited, priority 1999, published 2007).

Molecules are shown by their SMILES. “And” between values parts separate entries of the source, which are not always exact repeats. Identical values can stand only once.

Assay [1] has as its target T1, IAPP (Homo sapiens, UniProt P10997).
T1 sequence (P10997 34-70 limits assumed): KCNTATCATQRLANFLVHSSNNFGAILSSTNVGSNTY
As to the kind of experiment: Rate of amyloid fibril formation by Thioflavine T spectroscopy (Example 1). The assay is classed as biochemical. As to conditions: Thioflavine T fluorescence. The procedure:
Determination of the Rate of Amyloid Fibril Formation by Thioflavine T Spectroscopy
Detection of ThT fluorescence can be used as a sensitive assay for amyloid fibril formation under different conditions. This assay has been used in experiments to determine the effects of compounds of the invention on amyloid fibril formation.
Human IAPP was dissolved in 40% trifluoroethanol and freeze-dried into conveniently-sized aliquots. IAPP was prepared immediately before the measurements by dissolving in 40% 1,1,1,3,3,3-hexafluoro-2-propanol (HFIP) in water to maintain the peptide in alpha helical conformation and soluble. A stock solution of ThT (2.5 mM) was prepared, 7.9 mg in 10 mL Tris-HCl pH 7.0 and filtered (0.22 μm). Solutions were kept in the dark until use. Fluorescence was examined at 440 nm excitation (slit 5 nm), and emission at 482 nm (slit 10 nm) with stirring. […] of ThT stock (final concentration 62.5 μM) was added to peptide sample and made up to 1 mL in the cuvette. The sample was stirred for 5 min. before taking a reading. Measurements were made at an initial time point (5 min. from sample preparation), at intervals over the next 4-6 h and after overnight incubation at room temperature.

Assay [2] concerns the target T1, IAPP. As to the kind of experiment: Circular dichroism analysis of β-sheet conformation (Example 2). The assay is classed as biochemical. To be noted: changes in ellipticity at 218 nm (β-sheet conformation); peptide:compound 1:10. Also noted: add 10 μL of 10 mg/mL IAPP stock solution (final 100 μg peptide). The procedure: Circular dichroism analysis was conducted to confirm the activity of certain therapeutic compounds in preventing or inhibiting IAPP-associated fibril formation in accordance with the present disclosure by determining the presence or absence of β-sheet conformation.
The assay, a co-incubation procedure, examines the ability of a compound or substance to inhibit the assembly of amyloid fibrils, e.g., to test for the presence of the amyloidotic b-sheet conformation in the presence of soluble IAPP. Samples are run in the presence and absence (i.e., water alone) of buffering agent, which is done to determine if competitive effects are seen with the ionic buffer (usually phosphate).
Add components used at a molar ratio of 1:10 [peptide:compound]; add 10 μL of 10 mg/mL IAPP stock solution (final 100 μg peptide) to the aqueous solution containing compound to a final volume of 400 μl. The pH of the final assay solution is measured to ensure there is no fluctuation and the spectrum is accumulated using the parameters as shown above.
Add desired amount of compound to achieve a 1:10 molar ratio in 10 mM phosphate buffer, pH 7. Add 10 μL of 10 mg/mL IAPP stock solution (final peptide 100 μg) to the phosphate buffered solution containing the compound and bring to a final volume of 400 μL. The pH of the final assay solution is measured to ensure there is no fluctuation and the spectrum is accumulated using the parameters as shown above.
In both assays, a control sample is run with each test group. This control contains peptide only in water or buffer at a similar final volume of 400 μl. Spectra for the control are collected initially (first run) and at the end of the test (final run) to ensure that the peptide has not undergone extensive aggregation during the course of the assay. Spectra for the controls are used to compare with the measurements obtained with the treated samples.
Make fresh 1 mg/mL stock solution of IAPP in 10 mM phosphate buffer, pH 7. Add desired amount of compound to achieve a 1:10 molar ratio in 10 mM phosphate buffer, pH 7. Incubate for 3 days at room temperature. Make up to final volume of 400 μL with 10 mM phosphate buffer, pH 7. The pH of the final assay solution is measured to ensure there is no fluctuation and the spectrum is accumulated using the parameters as shown above. A similar control is run for comparative purposes.
Plots of the spectra (control and treated) are individually assembled and the changes in ellipticity at 218 nm are examined. This minimum is directly correlated with the amount of peptide in β-sheet conformation present in the sample. Changes in either a positive or negative direction are noted and a relative value (“active” or “not active”) assigned to the compound as a measure of activity.

Assay [3] concerns the target T1, IAPP. As to the kind of experiment: Circular dichroic spectroscopy (Example 6). The assay is classed as biochemical. The procedure: Circular Dichroic Spectroscopy
Human IAPP was prepared in 100% HFIP at 1 mg/ml filtered through a 0.31 μm filter, freeze dried in aliquots, resuspended in 20% HFIP and water, and filtered before analysis. The circular dichroic spectroscopy was performed in the same manner as described in Hubbard et al (1991) Biochem J, 275, 785-8. Samples were analysed immediately and after 24 h incubation with candidate substances i, iii, iv and x. […] After 24 h incubation the molecular conformation of IAPP (CNTL) was converted to β-conformation. […] This is prevented by the candidate compounds.

For a further assay, the target named is T2, Human IAPP (hIAPP) (Homo sapiens, UniProt P10997).
T2 construct: Human IAPP (hIAPP) was synthesised by solid state synthesis (Advanced Biotechnologies, UK); purchased Advanced Biotechnologies, UK; host or cells: chemical solid-phase synthesis
T2 sequence (P10997 34-70 limits assumed): T1 sequence (P10997 34-70 limits assumed)
The assay is described as follows: ELISA assay for quantitative determination of fibril formation (Example 4). The assay is classed as biochemical. To be noted: for proportion of non-fibrillar IAPP in the supernatant: IAPP 20 μM, inhibitor:IAPP molar ratio 10:1, compared to control. The procedure: ELISA Assay for Quantitative Determination of Fibril Formation
Human IAPP (hIAPP) was synthesised by solid state synthesis (Advanced Biotechnologies, UK). Human IAPP forms fibrils immediately in aqueous media. Aliquots of IAPP in water (800 μg/ml) were stored frozen at −20° C. until use. These samples contain small numbers of fibrils visible with electron microscopy (em).
Two sets of samples containing IAPP (20 μM) with or without inhibitors (at a molar ratio of 10:1 with IAPP, (20 μM)) were prepared on day 1 in Tris buffer. One set was centrifuged, the supernatant removed and frozen immediately at −20° C. (Time zero time point). The other set was incubated overnight at room temp with shaking (time 24 h time point). On day 2 these samples were spun and supernatant removed to determine the proportion of non-fibrillar IAPP.
To assay IAPP in the supernatant both sets of samples were serially diluted in bicarbonate coating buffer, added to ELISA wells and incubated overnight. Plates were washed in phosphate buffer containing Tween (PBS/Tw)×3. Diluted antiserum raised against human IAPP was incubated on the plate for 90 minutes at 37° C. Following washing in PBS/Tw, alkaline phosphatase conjugated anti-rabbit antisera was incubated for 90 mins. Following washing in PBS/Tw, alkaline phosphate substrate was added and colour allowed to develop for 30 mins. Optical density was read at 405 nm.
Data from all samples was calculated to determine changes of IAPP concentration in the supernatant induced by the candidate substance immediately (i.e. at time zero) or after 24 h incubation. Data in FIG. 1 is expressed as the proportion of non-fibrillar IAPP in the supernatant of test samples compared to control at both time points.
(In general: In an ELISA, binding on a coated surface is turned into a signal by an enzyme label.)

For assay [4], the system named is amyloid in transgenic islets cells expressing human IAPP. As to the kind of experiment: Electron micrograph analysis of amyloid in cultured transgenic islets. The assay is classed as cell-based, mouse. An excerpt: These are used as a test system for determining the toxicity and effect of putative amyloid inhibitors in short term culture systems. Whereas normal mice can be used to determine toxicity of compounds added to the media, amyloid fibrils form only in murine islets isolated from transgenic mice expressing the gene for human IAPP (transgene incorporation was confirmed by PCR). These islets are isolated in a similar way to that of human islets and are handpicked from the digest and cultured in 16.7 mM glucose as above. Amyloid fibrils formed within 4 days of culture and can be quantified by quantitative electron microscopy. […] The cells were cultured for 6 days in 11.1 mM glucose and RPMI.
Transgenic islets cells were cultured as described above, for 7 days and the media changed every two days. At the end of the culture period the islets were fixed in 2.5% glutaraldehyde in 0.1M sodium phosphate buffer (pH 7.2) for one hour and post-fixed in 1% osmium tetroxide, and embedded in Spurr's resin (Taab Laboratories, Reading, UK) or contrast enhanced in 2% Uranyl Acetate, dehydrated in methanol and embedded in LRGold (Taab, as previous). Ultrathin sections of the islets were mounted on formvar coated nickel grids. Amyloid was identified by immunogold labelling of tissue sections with an antisera raised to human IAPP 1-37, human IAPP 17-37, rat IAPP 1-37 and goat anti-rabbit gold conjugate (10 nm diameter) either from Biocell, Cardiff, UK or Sigma or by use of protein A gold. Grids were examined in a JOEL electron microscrope at an excitation voltage of 80 kV.
Images of 3 islet sections at a low magnification were prepared. A montage of each islet was made from electron micrographs and the areas of both intra and extra cellular amyloid identified and marked. The total islet area, together with the area of intra and extra cellular amyloid was then calculated using image analysis (Kontron Image Processor). 3 separate islets were examined for each condition.

[5] abbreviates: after 24 h incubation, IAPP alone converted to β-conformation.
The mark [6] stands for this setting: Average of 3 islets, 7 days culture.
The mark [7] stands for this setting: individual islets 1-3, 7 days culture.

Take `c1ccc2c(c1)CCNC2` [1,2,3,4-tetrahydroisoquinoline]: the IAPP-associated fibril assembly result at IAPP [1] was “inhibit or prevent IAPP-associated fibril assembly”.

For `O=S(=O)(O)CCCNCCCO` [3-(3-hydroxy-1-propyl)amino-1-propanesulfonic acid], the result on IAPP [2] was Active. Further, the IAPP-associated fibril assembly entry at IAPP [1] is given as “inhibit or prevent IAPP-associated fibril assembly”.

Consider `NCC(O)CS(=O)(=O)O` (stereo not shown) [3-amino-2-hydroxy-1-propanesulfonic acid], for which the outcome on IAPP [2] was Active. Also, the IAPP-associated fibril assembly entry on IAPP [1] was “inhibit or prevent IAPP-associated fibril assembly”.

For the molecule `CN(C)CCCS(=O)(=O)O` [3-dimethylamino-1-propanesulfonic acid], at IAPP [2], the result was Active. Also, the IAPP-associated fibril assembly result on IAPP [1] is “inhibit or prevent IAPP-associated fibril assembly”.

Consider `COc1ccc(S(=O)(=O)O)c2cccnc12` [8-methoxyquinoline-5-sulfonic acid], for which the IAPP-associated fibril assembly entry at IAPP [1] is “inhibit or prevent IAPP-associated fibril assembly”.

With `O=S(=O)(O)NC1CCCCC1` [cyclohexylsulfamic acid], on IAPP [1], the IAPP-associated fibril assembly entry is recorded as “inhibit or prevent IAPP-associated fibril assembly”.

For `O=S(=O)(O)CCCNCCCO` [i, 3-(3-hydroxy-1-propyl)amino-1-propanesulfonic acid], the “molecular conformation of IAPP (CD spectra)” value (“molecular conformation of IAPP” for short) on IAPP [3] (setting [5]) is on record as “remained in α-conformation”; on IAPP [3] (time zero), “typical CD spectra for α-conformation”. Further, at Human IAPP (hIAPP), the “proportion of non-fibrillar IAPP in the supernatant” value (shortened to “proportion of non-fibrillar IAPP”) is “increase the proportion of non-fibrillar IAPP in the supernatant”.

Turning to `c1ccc2c(c1)CCNC2` [iii, 1,2,3,4-tetrahydroisoquinoline], the “molecular conformation of IAPP” value was “remained in α-conformation” at IAPP [3] (setting [5]) and “typical CD spectra for α-conformation” on IAPP [3] (time zero). Besides, at Human IAPP (hIAPP), the “proportion of non-fibrillar IAPP” value is reported as “increase the proportion of non-fibrillar IAPP in the supernatant”. At IAPP [2], the result was Active.

For `O=S(=O)(O)NC1CCCCC1` [iv, Cyclohexylsulfamic acid], the figures for the “molecular conformation of IAPP” value at IAPP [3] (setting [5]) and at IAPP [3] (time zero) were “remained in α-conformation” and “typical CD spectra for α-conformation”, respectively. Also, the “proportion of non-fibrillar IAPP” value at Human IAPP (hIAPP) was “increase the proportion of non-fibrillar IAPP in the supernatant”. Further, the outcome at IAPP [2] was Active.

In the case of `NCC(O)CS(=O)(=O)O` (stereo not shown) [ix, 3-amino-2-hydroxy-1-propanesulfonic acid], the “proportion of non-fibrillar IAPP” value on Human IAPP (hIAPP) was “increase the proportion of non-fibrillar IAPP in the supernatant”.

Regarding `N[C@@H](COP(=O)(O)O)C(=O)O` [v, O-Phospho-L-serine], on Human IAPP (hIAPP), the “proportion of non-fibrillar IAPP” value is “increase the proportion of non-fibrillar IAPP in the supernatant”. In addition, on IAPP [2], the outcome was Active. The IAPP-associated fibril assembly result at IAPP [1] is recorded as “inhibit or prevent IAPP-associated fibril assembly”.

For the molecule `COc1ccc(S(=O)(=O)O)c2cccnc12` [vii, 8-methoxyquinoline-5-sulfonic acid], the “Extra amyloid % of total” value was 1.6% in assay [4] (setting [6]); 1.9% and 0.5% and 3.4% in assay [4] (setting [7]). For the same molecule, the Extra amyloid area is 86.8 μm^2 in assay [4] (setting [6]); 98.73 μm^2 and 37.9 μm^2 and 123.99 μm^2 in assay [4] (setting [7]). Also, the “proportion of non-fibrillar IAPP” value on Human IAPP (hIAPP) is recorded as “increase the proportion of non-fibrillar IAPP in the supernatant”. The outcome on IAPP [2] was Active.

As to `O=S(=O)(O)CCCN1CC=C(c2ccccc2)CC1` [viii, 4-phenyl-1-(3′ sulfopropyl)-1,2,3,6-tetrahydropyridine], the “proportion of non-fibrillar IAPP” value on Human IAPP (hIAPP) was “increase the proportion of non-fibrillar IAPP in the supernatant”. The result at IAPP [2] was Active. In addition, the IAPP-associated fibril assembly result on IAPP [1] is on record as “inhibit or prevent IAPP-associated fibril assembly”.

For `CN(C)CCCS(=O)(=O)O` [x, 3-dimethylamino-1-propanesulfonic acid], the figures for the “molecular conformation of IAPP” value at IAPP [3] (setting [5]) and at IAPP [3] (time zero) were “remained in α-conformation” and “typical CD spectra for α-conformation”, respectively. In addition, on Human IAPP (hIAPP), the “proportion of non-fibrillar IAPP” value was “increase the proportion of non-fibrillar IAPP in the supernatant”. Besides, the “time point at which the increase of non-fibrillar IAPP was greater” value at Human IAPP (hIAPP) (time zero versus time 24 h) is “greater at time zero”.
